In patent US5556777A, “Immunosuppressive pharmaceutical compositions new biological activity from a marine agrobacterium sp” (PharmaMar, s.a., priority 1993, dated 1996):
≈ marks a conversion by molar mass, not a printed value.

How the values were obtained:
[1] = system: murine lymphocytes (Balb/c and C57BI/6, cocultured); experiment: In vitro murine mixed lymphocyte reaction (MLR); assay type: cell-based; settings: for MLR IC50: murine MLR, 96 h incubation, 15 h 3H-Thy pulse; for Index Cytotox./Activity: ratio LcV IC50 / MLR IC50
Protocol: The MLR is an in vitro test of cellular immunity in which murine lymphocytes from genetically dissimilar animals are cocultured to mutually induce cell proliferation (i.e., two-way MLR method). Mixed cell suspensions, together with the test compound, are incubated for 96 hours and subsequently pulsed for 15 hours with tritiated-thymidine (3H-Thy), a radioisotopically labelled nucleic acid. Tritiated-thymidine is incorporated into the DNA of proliferating cells. Data from the MLR is generated as dpm of radioactivity which is then expressed as a percentage of cellular activity, relative to control, using the following reduced formula: [formula]
A 50% inhibitory concentration (IC50) value was interpolated for sesbanimide containing fractions tested. A ratio between cytotoxicity, as determined from the LcV described below, and activity in the MLR is also presented. A high ratio distinguishes noncytotoxic immunosuppression from general cytotoxicity.
Reconstituted extract (10 μl) is added in two sets of duplicates into wells of a 96-well microtiter plate and evaporated to dryness at room temperature. […] To the other set of sample duplicates is added complete media without cells so as to provide for background color control data. All plated are incubated in a 5% CO2 incubator for 96 hours and pulsed for 15 hours with 100 μl containing 1 μCi/well tritiated-thymidine (^3 H-Thy). The plates are harvested onto glass fiber filter discs using an INOTECH harvester. The filter discs are counted directly using an INOTECH dry scintillation counter. The activity of the discs are calculated as a relative proliferative percent of a mean control value as described above.

[2] = Lymphocyte viability / cytotoxicity assay (LcV), MTT; assay type: cell-based, murine; settings: mouse, lymphocytes; LcV; read-out: cytotoxicity IC50
Protocol: (§1) The LCV is a in vitro cytotoxicity assay for murine lymphocytes designed by the investigator. The LCV is similar to the MLR with the exception that only one cell population (Balb/c) is incubated with the test compound to assess cytotoxicity as distinct from the antiproliferative effects of a test compound. That is, unlike the unambiguous determination of immunostimulation from MLR data, a judgement of immunosuppression can not be immediately interpreted. Cytotoxicity (e.g., due to direct cell lysis) from a compound can occur which would alter viability determinations inherent in the generation of MLR data. […] The percent viable cells is determined by the MTT-thiazolyl blue method after a similar incubation to the MLR of lymphocytes with the test sample. MTT is a substrate converted by mitochondrial enzymes in living cells to a purple, water-insoluble, formazan crystal. If there is no significant reduction in cell viability, as determined by this detection method, then damaged cells are probably not present for low data values generated in the MLR. Colorimetric data from the LCV is calculated as a percentage of viability, relative to control, using the following formula: [formula]
(§2) A 50% viability, or 50% cytotoxicity, (IC50) value was interpolated for sesbanimide containing fractions tested.
(§3) Lymphocytes are prepared as described above for the MLR with the exception that cells from only one murine strain are prepared (BLAB/c). Reconstituted extract (10 μl) is added in two sets of duplicates into wells of a 96-well microtiter plate and evaporated to dryness at room temperature. Lymphocytes (2.5×10^6 cells/ml) are added to one set of duplicates and to wells containing no sample. Media containing no cells are added to the other set of duplicates to provide background color control data. Plated are incubated in a 5% CO2 incubator for 4 hours and pulsed with MTT-thiazolyl blue for 6-8 hours.

[3] = system: murine lymphocytes (Balb/c); experiment: as above; assay type: cell-based; settings: murine lymphocytes, MTT viability (50% cytotoxicity)
Protocol: as §1, §2, §3

[4] = Toxicology (MTD, LD50) in CD-1 or CB6F1 mice; assay type: in vivo, mouse; settings: mouse, in vivo, CD-1 or CB6F1 mice
Protocol: (§4) The MTD establishes the parameters to establish in vivo dosages initiated for studying the Graft-v-Host reaction and skin grafting. The Swiss conventional mouse (Charles River CD-1) is used in a weight range from 18-30 g.
(§5) Animals are injected with a single dose at four dose levels: e.g., 400 mg/kg, 100 mg/kg, 40 mg/kg, and 10 mg/kg in 0.5 ml of sterile vehicle (2 animals per dose, MTD). A saline solution containing 5% non-denatured EtOH and a drop of Tween-80 detergent is used a vehicle for dilution. Stirring and sonication are utilized to effect solution or suspension of the composition. The composition is injected within one hour of preparation. Animals are observed for five days (MTD) after injection for toxic symptoms and/or death. Group weights are taken D0 and D5. Surviving animals are sacrificed on D5 (MTD). A `Daily Logsheet` used in the toxicity studies is appended.

CD-1 or CB6F1 mice = experiment: Toxicology (MTD, LD50) in CD-1 or CB6F1 mice; assay type: in vivo, mouse
Protocol: as §4, §5

leukemia = settings: isolated from Sesbania drummondi; cited from earlier work
Graft-v-Host Reaction = experiment: In vivo Graft-v-Host reaction (GVHR), spleen index; design: species or system mouse
Protocol: Any sample that prevents splenomegaly (<graft index) is considered as an immunosuppressive active.
A standard of cyclophosphamide (200 mg/kg) is used. Experimental animals are sacrificed on D8 and spleens removed. […] Moribund animals are sacrificed immediately.

[5] = system: primary mixed lymphocyte cultures (MLRs) and alloreactive T cells; settings: compared with cyclosporin A; cited from earlier work
[6] = system: Agrobacterium sp. strain PH-103; experiment: Antibiotic sensitivity of strain PH-103 (sensitivity discs); assay type: cell-based; settings: 27° C.
Protocol: 18. Antibiotic sensitivity--ATCC number 231 basal medium. Difco sensitivity discs
The culture was incubated at 27° C. and records of the results were made after suitable incubation times. All media were prepared with 2.7% Instant Ocean Salts and pH was approximately neutral (7-7.4). The description of the culture and test results are as follows: […]

Compound: C=C1COC(O)(C2OCOC(C3CC(=O)NC(=O)C3)C2O)C1C (single isomer, unassigned) [Sesbanimide]
- immunosuppressive activity (in words) ([1]; Table 4 data: trace amounts of an extract, major constituent, or pure compound): potent immunosuppressive activity
- MLR IC50 ([1]; listed as ET 103/64-6:8): < 0.0075 mg/L
- MLR IC50 ([1]; listed as ET 103/89-4): 0.00015 mg/L
- Index Cytotox./Activity ([1]; listed as ET 103/64-6:8): > 1,746
- Index Cytotox./Activity ([1]; listed as ET 103/89-4): 2,777
- CC50 at 4 h [2]: 0.417 to 3.6 mg/L (≈ 1.27 to 11 µM)
- LcV IC50 ([3]; listed as ET 103/64-6:8): 13.100 mg/L
- LcV IC50 ([3]; listed as ET 103/89-4): 0.417 mg/L
- survival at 120 h ([4]; at maximum tolerated dose, read-out: Alive Day 5): 100%
- MTD at 120 h ([4]; read-out: Maximum Tolerated): 0.56 mg/kg
- LD50 (CD-1 or CB6F1 mice; CD-1 or CB6F1 mice): 0.805 mg/kg
- toxicity at 56, 10.5 and 5.6 mg/kg (CD-1 or CB6F1 mice; pure compound, in vivo, 56, 10.5 and 5.6 mg/kg): toxic
- toxicity at total doses equal to or lower than 0.56 mg/kg (CD-1 or CB6F1 mice; pure compound, in vivo, total dose ≤0.56 mg/kg): no toxicity
- antineoplastic activity (in words) (leukemia): antineoplastic activity, particularly against leukemia
- immunosuppressive activity in GVHR (in words) (Graft-v-Host Reaction; Table 6 data): potent immunosuppressive activity
- Alive Day 8 (Graft-v-Host Reaction; optimal dose 0.2 mg/kg, i.p. per diem 7 days): 40%
- GVHR Index (Graft-v-Host Reaction; optimal dose 0.2 mg/kg, i.p. per diem 7 days, positive 1.34): 0.92

Compound: C=CC[C@@H]1/C=C(\C)C[C@H](C)C[C@H](OC)[C@H]2O[C@@](O)(C(=O)C(=O)N3CCCC[C@H]3C(=O)O[C@H](/C(C)=C/[C@@H]3CC[C@@H](O)[C@H](OC)C3)[C@H](C)[C@@H](O)CC1=O)[C@H](C)C[C@@H]2OC [FK 506]
- potency relative to cyclosporin A (in words) [5]: more potent than cyclosporin A

Compound: O=P1(N(CCCl)CCCl)NCCCO1 (stereo not shown) [Cyclophosphamide, cyclophosphamide]
- Alive Day 8 (Graft-v-Host Reaction; 200.0 mg/kg, test 124-93): 100%
- GVHR Index (Graft-v-Host Reaction; 200.0 mg/kg, test 124-93, positive 1.32): 0.23
- Alive Day 8 (Graft-v-Host Reaction; 200.0 mg/kg, test 811-93): 60%
- GVHR Index (Graft-v-Host Reaction; 200.0 mg/kg, test 811-93, positive 1.34): 0.28

Compound: CN[C@H](CC(C)C)C(=O)N[C@H]1C(=O)N[C@@H](CC(N)=O)C(=O)N[C@H]2C(=O)N[C@H]3C(=O)N[C@H](C(=O)N[C@H](C(=O)O)c4cc(O)cc(O)c4-c4cc3ccc4O)[C@H](O)c3ccc(c(Cl)c3)Oc3cc2cc(c3O[C@@H]2O[C@H](CO)[C@@H](O)[C@H](O)[C@H]2O[C@H]2C[C@](C)(N)[C@H](O)[C@H](C)O2)Oc2ccc(cc2Cl)[C@H]1O [vancomycin]
- Antibiotic sensitivity of strain PH-103 [6]: resistant

Compound: CCn1cc(C(=O)O)c(=O)c2ccc(C)nc21 [nalidixic acid]
- Antibiotic sensitivity of strain PH-103 [6]: Sensitive

Compound: polymyxin
- Antibiotic sensitivity of strain PH-103 [6]: resistant
